Measurements from EP4613329A1, “COMPOUND FOR INHIBITING BRD PROTEIN” (Benobio Co., Ltd., priority 2024, dated 2025).

Columns and labels:
BRD2 (BD1) = molecular target: T1, BRD2 (BD1) (Homo sapiens, UniProt P25440); test: Binding inhibitory effect on BRD2 protein (AlphaScreen, GST-BRD2 (BD1) / biotinylated acetyl-histone H4 peptide); conditions: 100 nM GST-BRD2 (BD1), 100 nM biotinylated acetyl-histone H4 (Lys5, 8, 12, 16) peptide
T1 construct: a bromodomain of BRD2 (BD1) and BRD3 (BD1), one of the BRD protein family

[1] = test system: retinal degeneration mouse model; test: Electroretinogram (ERG) in blue LED-induced retinal degeneration mouse model; format: in vivo, albino BALB/c mice; conditions: compound 24 nM, Com. Ex. 4 25 mg/kg; for Wavelength enhanced multiple compared to normal saline-treated group, Average value: average of a-wave and b-wave, intravitreal; for Wavelength enhanced multiple compared to normal saline-treated group, a-wave / Wavelength enhanced multiple compared to normal saline-treated group, b-wave: single intravitreal injection 1 hour after LED exposure
Method: In order to fabricate a retinal degeneration model, 7-week-old male albino BALB/c mice were used. Three mice were randomly assigned to each test group, and light and dark were maintained at 12-hour intervals. Each mouse was dark-adapted for 24 hours and then the pupils were dilated with 0.5% tropicamide and 0.5% phenylephrine hydrochloride eye drops (Santen, Osaka, Japan) 30 minutes before blue LED exposure. Unanesthetized mice were exposed to 2,000 lux of a blue LED (460 ± 10 nm) for 2 hours in a cage with reflective interiors. The light intensity was measured using an LED photometer (model TM-201L, TENMARS Electronics, Taipei, Taiwan). After exposure to blue LED, the mice were kept in the dark for 24 hours and then resumed on a 12-hour light/dark cycle for 3 days.
In a test substance control test, mice with retinal degeneration were divided into a normal saline-administered group and a compound-administered group (24 nM) of the present disclosure, and 3 mice were randomly assigned to each test group. A positive control test was divided into a normal saline-administered group and an Eyela (25 mg/kg mouse body weight)-administered group (Comparative Example 4), and three mice were randomly assigned to each test group.
All test groups were administered as a single dose by intravitreal injection 1 hour after LED exposure.
That is, mice were stored in a completely dark room for 16 hours before ERG recordings. All animals were anesthetized intraperitoneally with zolazepam (20 mg/kg) and xylazine (7.5 mg/kg). The cornea was coated with hydroxypropyl methylcellulose gel and covered with a gold ring contact electrode. Ground and reference electrodes were disposed subcutaneously on the tail and ears, respectively. Stimuli were short white flashes delivered through a Ganzfeld stimulator (UTAS-3000; LKC Technologies, Gaithersburg, MD, USA). The signal was amplified and filtered through a digital band-pass filter in the range of 5 to 300 Hz to generate a and b waves. Scotopic ERG, and rod-mediated responses were obtained at increasing light intensities of 0.025 and 3.96 cd/s • m^2. Photopic, cone-mediated responses were obtained after 5-min light adaptation to background light intensity. The recordings were obtained at the light intensity of 6.28 cd/s • m^2. Each recording was the average of three responses obtained within a 15-second stimulation interval. A-wave amplitude was measured from a baseline to the maximum a-wave peak, and b-wave amplitude was measured from the maximum a-wave peak to the maximum b-wave peak.

BRD3 (BD1) = molecular target: T2, BRD3 (BD1) (Homo sapiens, UniProt Q15059); test: Binding inhibitory effect on BRD3 protein (same manner as Experimental Example 1-1)
T2 construct: a bromodomain of BRD2 (BD1) and BRD3 (BD1), one of the BRD protein family; GST

[2] = test system: macular degeneration animal model; test: Laser burn-induced macular degeneration animal model, OCT and FFA image analysis; format: in vivo, mouse; conditions: compounds 0.022 µg/eye, Com. Ex. 4 20 µg/eye
Method: After the mouse was subjected to general anesthesia, the eye was applied with anesthetic eye drops to be subjected to additional local anesthesia and additionally induce mydriasis. A macular degeneration animal model was prepared by destroying the Bruch's membrane by inducing laser burn according to macular degeneration induction conditions. […] On day 11 of macular degeneration induction, the mice were subjected to general anesthesia and then injected intraperitoneally with a fluorescent contrast agent. The mouse was placed on the sacrifice table, lubricating gel was dropped into the corresponding eye, and an OCT lens was brought into contact with the mouse's cornea. Image analysis for fluorescein fundus angiography (FFA) and OCT was performed using the Image-J program.

T1 sequence (P25440 74-180 limits assumed, species assumed): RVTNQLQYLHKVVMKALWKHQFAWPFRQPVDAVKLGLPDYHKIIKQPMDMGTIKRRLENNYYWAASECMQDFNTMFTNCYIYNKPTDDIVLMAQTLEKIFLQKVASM
T2 sequence (Q15059 34-140 limits assumed, species assumed): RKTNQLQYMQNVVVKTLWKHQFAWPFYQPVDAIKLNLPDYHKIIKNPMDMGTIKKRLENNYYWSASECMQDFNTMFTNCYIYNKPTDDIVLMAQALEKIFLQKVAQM

Row | IC50 (BRD2 (BD1)) | Wavelength enhanced multiple compared to normal saline-treated group, Average value [1] | Wavelength enhanced multiple compared to normal saline-treated group, a-wave [1] | Wavelength enhanced multiple compared to normal saline-treated group, b-wave [1] | IC50 (BRD3 (BD1)) | Structure (SMILES) | Lesion size compared to negative control group (FFA) ([2]; FFA imaging, day 11, negative control = excipient) | CTF value ([2]; FFA imaging, day 11 of macular degeneration induction, both eyes) | Lesion size compared to negative control group (OCT) ([2]; OCT imaging, day 11, negative control = excipient) | Volume of lesion ([2]; OCT imaging, day 11 of macular degeneration induction, both eyes)
1 | 13.9 µM | 2.30 | 2.17 | 2.42 | 1.16 µM | CNC(=O)C1(Cc2ccc(F)cc2)CCN(Cc2ccc(-c3ccccc3-c3cccc4c3CN(C)C4=O)o2)CC1 [Compound 21, 2-methyl-4-(2-(5-(((4-(4-fluorobenzyl)-4'-carboxamidyl)piperidine)methyl)furan-2-yl)phenyl)isoindoline-1-one] |  |  |  | 
2 | 7.68 µM | 1.27 | 1.52 | 1.01 | 1.29 µM | CNC(=O)C1(C)CN(Cc2ccc(-c3ccccc3-c3cccc4c3CN(C)C4=O)o2)CCC1O (stereo not drawn) [Compound 25] |  |  |  | 
3 | 10.9 µM | 1.33 | 1.31 | 1.35 | 4.36 µM | CNC(=O)C1(Cc2ccccc2)CCCN1Cc1ccc(-c2ccccc2-c2cccc3c2CN(C)C3=O)o1 (stereo not drawn) [Compound 28] | 35.40% | 325,936 Pixels | 51.99% | 1,132,542 µm^3
4 | 9.5 µM | 1.38 | 1.45 | 1.31 | 4.76 µM | CN1Cc2c(cccc2-c2ccccc2-c2ccc(COCN3CCC(F)(F)CC3)o2)C1=O [Compound 37, 2-methyl-4-(2-(5-((((4,4-difluoropiperidine-1-yl)methoxy)-3-carboxamidyl)methyl)furan-2-yl)phenyl)isoindoline-1-one] |  |  |  | 
5 | 8.67 µM | 1.36 | 1.21 | 1.51 | 4.16 µM | CNC(=O)C1(Cc2ccc(F)cc2)CCN(Cc2oc(-c3ccccc3-c3cccc4c3CN(C)C4=O)cc2C)CC1 [Compound 39, 2-methyl-4-(2-(5-((3-methyl(4-(4-fluorobenzyl)-4'-carboxamidyl)piperidine)methyl)furan-2-yl)phenyl)isoindoline-1-one] |  |  |  | 
6 | 10.6 µM | 1.30 | 1.16 | 1.43 | 3.96 µM | CCC1(C(=O)NC)CCCN(Cc2oc(-c3ccccc3-c3cccc4c3CN(C)C4=O)cc2C)C1 (stereo not drawn) [Compound 40] |  |  |  | 
7 | 10.9 µM | 1.32 | 1.25 | 1.38 | 3.77 µM | CNC(=O)CC1C(=O)NCCN1Cc1oc(-c2ccccc2-c2cccc3c2CN(C)C3=O)cc1C (stereo not drawn) [Compound 42, 2-methyl-4-(2-(5-(3-methyl(N-methyl-2-(3-oxopiperazine-2yl)acetamidyl)methyl)furan-2-yl)phenyl)isoindoline-1-one] |  |  |  | 
